According to PubChem BioAssay (NCI):
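Tested at 5 concentrations; 48 h exposure; 96-well plates; endpoints linearly interpolated, else capped at highest concentration. GI50 is the concentration that inhibits growth by half. TGI marks complete inhibition of growth.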

Columns and labels:
Assay in all cases: NCI tumour cell line growth inhibition, 48 h
[1] = system: 786-0 renal
[2] = system: A498 renal
[3] = system: A549 NSCLC
[4] = system: ACHN renal
[5] = system: BT-549 breast
[6] = system: DU-145 prostate
[7] = system: HCC-2998 colon
[8] = system: HCT-116 colon
[9] = system: HCT-15 colon
[10] = system: HOP-62 NSCLC
[11] = system: HOP-92 NSCLC
[12] = system: HS 578T breast
[13] = system: HT29 colon
[14] = system: IGROV1 ovarian
[15] = system: MALME-3M melanoma
[16] = system: MCF7 breast
[17] = system: MDA-MB-231 breast
[18] = system: MDA-MB-435
[19] = system: NCI-H226 lung
[20] = system: NCI-H23 lung
[21] = system: NCI-H460 lung
[22] = system: NCI-H522 lung
[23] = system: NCI/ADR-RES ovarian
[24] = system: OVCAR-3 ovarian
[25] = system: OVCAR-4 ovarian
[26] = system: OVCAR-5 ovarian
[27] = system: OVCAR-8 ovarian
[28] = system: PC-3 prostate
[29] = system: RXF 393 renal
[30] = system: SF-268 CNS
[31] = system: SF-539 CNS
[32] = system: SK-MEL-2 melanoma
[33] = system: SK-MEL-28 melanoma
[34] = system: SK-OV-3 ovarian
[35] = system: SN12C renal
[36] = system: SNB-19 CNS
[37] = system: T-47D breast
[38] = system: TK-10 renal
[39] = system: U251 CNS
[40] = system: UACC-257 melanoma
[41] = system: UACC-62 melanoma
[42] = system: CAKI-1 renal
[43] = system: COLO 205 colon
[44] = system: EKVX NSCLC
[45] = system: HL-60(TB) leukemia
[46] = system: K-562 leukemia
[47] = system: KM12 colon
[48] = system: LOX IMVI melanoma
[49] = system: M14 melanoma
[50] = system: MOLT-4 leukemia
[51] = system: RPMI-8226 leukemia
[52] = system: SF-295 CNS
[53] = system: SK-MEL-5 melanoma
[54] = system: SR leukemia
[55] = system: SW-620 colon
[56] = system: UO-31 renal

Compound: C=C1c2c(C)nn(-c3ccccc3)c2N(C)C23C[C@@H]1C1(C)c4c(C)nn(-c5ccccc5)c4N(C)C(C)(C[C@H]12)C3 (some centres undefined)
- GI50 [1]: 11.8 µM
- TGI [1]: 69.4 µM
- GI50 [2]: 4.28 µM
- TGI [2]: 45.9 µM
- GI50 [3]: 2.37 µM
- TGI [3]: > 100 µM
- GI50 [4]: 4.78 µM
- TGI [4]: > 100 µM
- GI50 [5]: 5.55 µM
- TGI [5]: > 100 µM
- GI50 [6]: 8.7 µM
- TGI [6]: > 100 µM
- GI50 [7]: 6.21 µM
- TGI [7]: > 100 µM
- GI50 [8]: 3.72 µM
- TGI [8]: > 100 µM
- GI50 [9]: 3.67 µM
- TGI [9]: > 100 µM
- GI50 [10]: 7.15 µM
- TGI [10]: 25.9 µM
- GI50 [11]: 0.549 µM
- TGI [11]: 5.53 µM
- GI50 [12]: 5.67 µM
- TGI [12]: 80.1 µM
- GI50 [13]: 3.59 µM
- TGI [13]: > 100 µM
- GI50 [14]: 11.9 µM
- TGI [14]: > 100 µM
- GI50 [15]: 4.19 µM
- TGI [15]: 93.5 µM
- GI50 [16]: 2.99 µM
- TGI [16]: > 100 µM
- GI50 [17]: 4.55 µM
- TGI [17]: 39.6 µM
- GI50 [18]: 4.12 µM
- TGI [18]: > 100 µM
- GI50 [19]: 15.3 µM
- TGI [19]: > 100 µM
- GI50 [20]: 7.99 µM
- TGI [20]: > 100 µM
- GI50 [21]: 3.35 µM
- TGI [21]: > 100 µM
- GI50 [22]: 2.12 µM
- TGI [22]: 7.73 µM
- GI50 [23]: 6.04 µM
- TGI [23]: > 100 µM
- GI50 [24]: 4.58 µM
- TGI [24]: > 100 µM
- GI50 [25]: 4.49 µM
- TGI [25]: > 100 µM
- GI50 [26]: > 100 µM
- TGI [26]: > 100 µM
- GI50 [27]: 5.41 µM
- TGI [27]: > 100 µM
- GI50 [28]: 0.979 µM
- TGI [28]: > 100 µM
- GI50 [29]: 2.04 µM
- TGI [29]: 6.39 µM
- GI50 [30]: 7.52 µM
- TGI [30]: > 100 µM
- GI50 [31]: 26.7 µM
- TGI [31]: > 100 µM
- GI50 [32]: 6.78 µM
- TGI [32]: 22 µM
- GI50 [33]: 22.6 µM
- TGI [33]: > 100 µM
- GI50 [34]: 4.64 µM
- TGI [34]: 21.8 µM
- GI50 [35]: 9.92 µM
- TGI [35]: > 100 µM
- GI50 [36]: 11 µM
- TGI [36]: 79.6 µM
- GI50 [37]: 2.13 µM
- TGI [37]: > 100 µM
- GI50 [38]: 4.77 µM
- TGI [38]: 24.5 µM
- GI50 [39]: 4.44 µM
- TGI [39]: 31.6 µM
- GI50 [40]: 2.87 µM
- TGI [40]: > 100 µM
- GI50 [41]: 4.38 µM
- TGI [41]: > 100 µM

Compound: Oc1cccc(-c2cc(=S)ss2)c1
- TGI [1]: 36.2 µM
- TGI [3]: 44.5 µM
- TGI [4]: 30.1 µM
- TGI [5]: 35.8 µM
- TGI [42]: 45.7 µM
- TGI [43]: 35.6 µM
- TGI [44]: 31.5 µM
- TGI [7]: 32.4 µM
- TGI [8]: 33.3 µM
- TGI [9]: 31.4 µM
- TGI [45]: 48.5 µM
- TGI [10]: 34.3 µM
- TGI [11]: 28.5 µM
- TGI [12]: 36.9 µM
- TGI [13]: 55.3 µM
- TGI [14]: 29.8 µM
- TGI [46]: 60.6 µM
- TGI [47]: 43 µM
- TGI [48]: 33.3 µM
- TGI [49]: 37.7 µM
- TGI [15]: 32.5 µM
- TGI [16]: 27.5 µM
- TGI [17]: 31.5 µM
- TGI [18]: 53.8 µM
- TGI [50]: > 100 µM
- TGI [19]: 41 µM
- TGI [20]: 23.1 µM
- TGI [21]: 32.8 µM
- TGI [22]: 20.4 µM
- TGI [23]: 53.7 µM
- TGI [25]: 40.6 µM
- TGI [26]: 30.8 µM
- TGI [27]: 49.9 µM
- TGI [28]: 28.3 µM
- TGI [51]: 5.91 µM
- TGI [29]: 40.5 µM
- TGI [30]: 32.6 µM
- TGI [52]: 29.5 µM
- TGI [31]: 35 µM
- TGI [32]: 30.5 µM
- TGI [33]: 43.8 µM
- TGI [53]: 19.7 µM
- TGI [34]: 37.7 µM
- TGI [35]: 36.5 µM
- TGI [36]: 36.4 µM
- TGI [54]: 11.9 µM
- TGI [55]: 44.3 µM
- TGI [38]: 33.1 µM
- TGI [39]: 28.5 µM
- TGI [40]: 28.4 µM
- TGI [41]: 38.2 µM
- TGI [56]: 28.5 µM
